Reference: US20220211658A1, “METHODS FOR TREATING DISORDERS ASSOCIATED WITH SLEEP SPINDLE DEFICITS” (The Broad Institute, Inc., priority 2019, published 2022)

Key:
[1] = tested on: TRN neurons in WT mice; assay: Rebound burst firing in TRN neurons, acute brain slices from WT mice; type: cell-based; conditions: mean±s.e.m.
Text: (§1) TRN neurons are known to display dual firing modes depending on their resting membrane potential: tonic and burst firing. While tonic firing refers to regular sodium spike trains at depolarized membrane potential, burst firing is characterized by repetitive “low-threshold” T type Ca^2+ transients (mediated by Cav3.3 channel) crowned by high-frequency sodium spikes when hyperpolarized. This burst firing mode may be critical for the generation and/or the maintenance of certain sleep rhythms in mice, including generation and maintenance of sleep spindle oscillations (Astori et al., 2011; Lee et al., 2014; Steriade et al., 1993; von Krosigk et al., 1993; Sherman et al., 2002).
Whether this characteristic TRN burst firing activity is affected by activation of the group II metabotropic glutamate receptors, including mGlu2 and mGlu3, was examined using the group II metabotropic glutamate receptor agonist, LY379268. As shown in FIG. 1A-1B, a significant increase in the repetitive rebound bursting after the addition of LY379268 compared to baseline levels in acute brain slices acquired from wild-type (WT) mice was observed. The rebound bursting in the baseline condition (control) was 1.87±0.291 (mean±s.e.m.), while after the bath application of LY379268 (1 μM) it was 2.87±0.435 (n=15 Wilcoxon signed rank test: p=0.002**). Such increase was not observed in WT slices treated with artificial cerebrospinal fluid (ACSF; n=14; baseline: 1.79±0.291; ACSF treated: 2.21±0.299; Wilcoxon signed rank test: p=0.1562). In addition, there was also a reduction in burst threshold (defined as the lowest membrane holding potential from which hyperpolarization induced rebound bursting can be observed) in WT mice after bath application of LY379268 (1 μM; FIG. 1C). The threshold for rebound bursting in the baseline condition (control) was −76.98 mV±1.79 (mean±s.e.m.), while after the bath application of LY379268 (1 μM) it was −78.48 mV±1.80 (n=10 Wilcoxon signed rank test: p=0.048*). Such changes in threshold were also not observed following ACSF treatment (n=10; baseline: −76.06 mV±1.71; ACSF treated: −76.32 mV±1.82; Wilcoxon signed rank test: p=0.3750).
Since early clinical trials used a prodrug form of another selective group II metabotropic glutamate receptor agonist, specifically […] (a methionine amide of LY-404039, also called pornagiumetad methionil or LY-2140023 monohydrate), the effect of LY-404039 on TRN neuron rebound bursting activity in WT mice was measured. […] The rebound bursting in control conditions was 2.71±0.42 (mean±s.e.m.), while after the bath application of LY404039 (1 μM) it was 4.57±0.64 (n=7 Wilcoxon signed rank test: p=0.0156).
Whether specific allosteric activation of the mGlu3 receptor can also enhance rebound bursting activity in TRN neurons was examined. […]

[2] = tested on: WT mice; assay: EEG recording of NREM sleep and sleep spindle density after Mavalon-63, decision tree algorithm; type: in vivo; conditions: 10 mg/kg
Procedure: (§2) There is a strong correlation between rebound bursting in TRN neurons and the rate of occurrence of sleep spindle oscillations during NREM or deep sleep state in mice (Wells et al., Ghoshal et al.) Since LY379268 increased rebound burst firing of TRN neurons in WT mice and rescued rebound bursting deficits in RH mice, it was examined whether activation of mGlu3 could rescue the sleep spindle deficits observed in the RH mice. LY379268 was administered intraperitoneally (i.p.; 10 mg/kg) while simultaneously recording the brain activity using electroencephalography (EEG) in WT and CaV3.3 RH mice. EEG was recorded using surface electrodes chronically implanted near the frontal and parietal lobes of the mice (Pinnacle Systems). Mice were habituated in the EEG recording arena for 48 hrs and then injected with vehicle (0.9% saline) and recorded for another 24 hours. Then, 10 mg/kg LY379268 formulated in 0.9% saline was injected, and their EEG activity was recorded for another 24 hours, and analyzed by Luna (zzz.bwh.harvard.edu, Ghoshal et al., 2020).
Whether allosteric activation of mGlu3 receptor using the Mavalon-63 PAM would also lead to an increase in sleep spindle density was examined. The experimental design is shown in FIG. 6A, and mice were similarly recorded as in Example 4. […]

[3] = tested on: TRN neurons in RH mice; assay: Rebound burst firing in TRN neurons, slices from CACNA1I R1305H (RH) mice; type: cell-based; conditions: LY379268 1 μM bath application, mean±s.e.m., n=9, baseline 1.44±0.444, p=0.0039
Text: as §1
Mice carrying a mutation in CACNA1I (R1305H; RH mice) show a significant deficit in rebound bursting of TRN neurons. The amino acid sequence of mouse CACNA1I protein is provided in SEQ ID NO: 2. Whether the group II metabotropic glutamate receptor agonist LY379268 could rescue such deficits in rebound bursting in RH mice was tested. Similar to in WT mice, LY379268 (1 μM) was also able to increase rebound bursting in RH mice (FIG. 2A-2B). The rebound bursting in baseline/control conditions was 1.44±0.444 (mean±s.e.m.), while after the bath application of LY379268 (1 μM) it was 3.78±1.08 (n=9 Wilcoxon signed rank test: p=0.0039**). […]

[4] = tested on: WT and CaV3.3 RH mice; assay: EEG recording of NREM sleep, delta power and sleep spindles after LY379268, analyzed by Luna; type: in vivo; conditions: 10 mg/kg i.p.
Procedure: as §2

[5] = both WT and RH mice, 12 hr light cycle

For `CN1C(=O)c2cccn2-c2cc(-c3ccc(F)cn3)ccc2C12CC2` [Mavalon 63, 5-Methyl-9-(5-fluoropyridin-2-yl)-spiro[benzo [f]pyrrolo[1.2-a][1,4]diazepine-6,1′-cyclopropan]-4(5H)-one], the “rebound bursting (number of rebound bursts) after bath application” value ([1]; WT TRN neurons, Mavalon 63 500 nM bath application, n=12, baseline 3.2±0.77, p=0.0020) was 4.9±0.91, the “time spent in NREM” value ([2]; 12-hr light cycle) was “did not increase” and the “parietal sleep spindle density during NREM” value ([2]; averaged across all center frequencies 9-15 Hz, 12 hour light cycle) was “appreciable and significant (p<0.05; paired t-test) increase”.
With `N[C@@]1(C(=O)O)CS(=O)(=O)[C@H]2[C@H](C(=O)O)[C@H]21` [LY404039, (1R,4S,5S,6S)-4-Amino-2-thiabicyclo [3.1.0]hexane-4,6-dicaiboxylic acid 2,2-dioxide] the “rebound bursting (number of rebound bursts) after bath application” value ([1]; WT mice, LY404039 1 μM bath application, n=7, control 2.71±0.42, p=0.0156) was 4.57±0.64.
`N[C@@]1(C(=O)O)CO[C@H]2[C@H](C(=O)O)[C@H]21` (stereo in doubt) [LY379268, (1R,4R,5S, 6R)-4-Amino-2-oxabicyclo[3.1.0]hexane-4,6-dicarboxylic acid] was tested, and the “threshold for rebound bursting after bath application” value ([1]; WT mice, LY379268 1 μM bath application, n=10, baseline −76.98 mV±1.79, p=0.048) was −78.48 mV, the “rebound bursting (number of rebound bursts) after bath application” value ([1]; WT mice, LY379268 1 μM bath application, n=15, baseline 1.87±0.291, p=0.002) was 2.87±0.435 and the “rebound bursting (number of rebound bursts) after bath application” value [3] was 3.78±1.08. The “NREM specific sleep spindle deficits in RH mice” value ([4]; RH mice, to wildtype levels, WT-baseline vs RH-LY379268 p>0.05) was “rescued”, the “sleep spindle density, entire NREM period” value ([4]; both WT and RH mice, 12-hr light cycle, especially parietal cortex, Fc=13 Hz and 15 Hz) was “modest but significant increase” and the relative delta power [4, 5] was “concurrent increase”. For the same molecule, the “time spent in NREM sleep” value [4, 5] was “increased” and the “increase in sleep spindles, latter half (last 6 hours) of the light cycle” value ([4]; compared with the entire 12-hr light cycle, Fc=13 Hz and 15 Hz) was “more robust”.
